Where “and” joins values, the source holds several entries; their conditions need not be identical. Identical values can stand only once.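 Dose response: 5 concentrations. Exposure: 48 h. Format: 96-well plates. Endpoint: linear interpolation; highest concentration if not reached. Abbreviation: GI50, concentration required for 50% inhibition of growth. TGI is the concentration that stops growth completely.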
Key:
Assay in all cases: NCI anticancer screen, dose series, 48 h
MCF7 breast = tested on: MCF7 breast
HS 578T breast = tested on: HS 578T breast
DLD-1 colon = tested on: DLD-1 colon
KM20L2 colon = tested on: KM20L2 colon
M19-MEL melanoma = tested on: M19-MEL melanoma
DMS 114 small cell lung = tested on: DMS 114 small cell lung
RXF-631 renal = tested on: RXF-631 renal
XF 498 CNS = tested on: XF 498 CNS
MDA-N = tested on: MDA-N

Cc1cc(O)cc(C)c1/C=C/c1cncc(C(=O)N(C)C)c1
GI50 (MCF7 breast): > 25 µM | TGI (MCF7 breast): > 25 µM | GI50 (HS 578T breast): > 25 µM | TGI (HS 578T breast): > 25 µM

CCCCc1cc(O)ccc1O
GI50 (MCF7 breast): 40.4 µM | TGI (MCF7 breast): > 100 µM | GI50 (HS 578T breast): 18.7 µM | TGI (HS 578T breast): > 100 µM

CCc1ccc(C2=C(O)C(=O)C(c3ccc(CC)cc3)=C(O)C2=O)cc1
GI50 (MCF7 breast): 1.83 µM | TGI (MCF7 breast): 5.05 µM | GI50 (HS 578T breast): 1.72 µM | TGI (HS 578T breast): 6.58 µM

CC(C)(C)C([O-])=C1C(=O)c2ccccc2C1=O.CC(C)(C)C([O-])=C1C(=O)c2ccccc2C1=O.CC[O-].CC[O-].[Ti+4]
GI50 (DLD-1 colon): 46.9 µM | TGI (DLD-1 colon): > 100 µM | GI50 (KM20L2 colon): 29.2 µM | TGI (KM20L2 colon): > 100 µM | GI50 (M19-MEL melanoma): 31.5 µM | TGI (M19-MEL melanoma): > 100 µM

Cn1cc(NC(=O)c2cc(NC(=O)CCCCCC(=O)Nc3cc(C(=O)Nc4cc(C(=O)NCCC(=N)N)n(C)c4)n(C)c3)cn2C)cc1C(=O)NCCC(=N)N
TGI (DLD-1 colon): > 100 µM | TGI (DMS 114 small cell lung): > 100 µM | TGI (RXF-631 renal): > 100 µM | TGI (KM20L2 colon): > 100 µM | TGI (XF 498 CNS): > 100 µM | TGI (M19-MEL melanoma): 92.8 µM

Cn1cnc([N+](=O)[O-])c1Sc1ncnc2nc[nH]c12
GI50 (MCF7 breast): 2.92 µM and 3.69 µM | TGI (MCF7 breast): > 100 µM | GI50 (HS 578T breast): 4.8 µM and 3.86 µM | TGI (HS 578T breast): > 100 µM

O=[N+]([O-])/C=C\c1ccc2c(c1)OCO2
GI50 (MCF7 breast): 1.99 µM | TGI (MCF7 breast): 10.4 µM | GI50 (HS 578T breast): 3.47 µM | TGI (HS 578T breast): 19.9 µM

CCN(CC)CC(C)Nc1ccc(C)c2sc3ccccc3c(=O)c12 (stereo not given)
GI50 (MCF7 breast): 2.1 µM | TGI (MCF7 breast): 6.96 µM | GI50 (HS 578T breast): 2.29 µM | TGI (HS 578T breast): 9 µM

Cc1ccc(S(=O)(=O)ON/N=C2/C3OC3[C@@H]3CCCC[C@H]23)cc1 (stereo not given in full)
TGI (DLD-1 colon): > 100 µM | TGI (KM20L2 colon): > 100 µM | TGI (XF 498 CNS): > 100 µM | TGI (M19-MEL melanoma): > 100 µM

CC1=C(N2CC2)C(=O)c2nc3n(c2C1=O)CCC3O (stereo not given)
TGI (DMS 114 small cell lung): 2.68 µM | TGI (KM20L2 colon): 5.95 µM | TGI (HS 578T breast): 0.0585 µM | TGI (XF 498 CNS): 29.8 µM | TGI (M19-MEL melanoma): 3.57 µM

COC1C(=O)CCC2(CO2)C1(O)C1(C)OC1CCC(C)C (stereo not given)
TGI (MCF7 breast): > 100 µM | TGI (MDA-N): > 100 µM | TGI (HS 578T breast): > 100 µM

Cn1nnnc1[N-]Cc1ccccc1.[Au+].c1ccc([PH+](c2ccccc2)c2ccccc2)cc1
GI50 (DLD-1 colon): 1.91 µM | TGI (DLD-1 colon): 4.59 µM | GI50 (DMS 114 small cell lung): 1.53 µM | TGI (DMS 114 small cell lung): 4.83 µM | GI50 (KM20L2 colon): 8.56 µM | TGI (KM20L2 colon): 29.8 µM | GI50 (M19-MEL melanoma): 3.32 µM | TGI (M19-MEL melanoma): 25.3 µM

CCOC(=O)/C=C/c1ccc(C(=O)OCC)[nH]1
GI50 (MCF7 breast): 3.06 µM | TGI (MCF7 breast): > 100 µM | GI50 (HS 578T breast): 2.43 µM | TGI (HS 578T breast): 22.3 µM

CCc1cccc(C)c1NC(=O)CC1Sc2ccccc2NC1=O (stereo not given)
TGI (DLD-1 colon): > 100 µM | TGI (DMS 114 small cell lung): > 100 µM | TGI (RXF-631 renal): > 100 µM | TGI (KM20L2 colon): > 100 µM | TGI (XF 498 CNS): > 100 µM | TGI (M19-MEL melanoma): > 100 µM

N#CC1C(N)=NNC1c1ccc(-c2ccc(-c3nc4ccccc4o3)cc2)o1 (stereo not given)
GI50 (HS 578T breast): 29.6 µM | TGI (HS 578T breast): > 100 µM

Nc1ccc2c(c1)[O][Sn]([c]1ccccc1)([c]1ccccc1)[O]C2=O
GI50 (DLD-1 colon): 4.24 µM | TGI (DLD-1 colon): 15.4 µM | GI50 (MCF7 breast): 3.95 µM | TGI (MCF7 breast): 8.52 µM | GI50 (DMS 114 small cell lung): 6.68 µM | TGI (DMS 114 small cell lung): 18.7 µM | GI50 (RXF-631 renal): 15.9 µM | TGI (RXF-631 renal): 29.9 µM | GI50 (KM20L2 colon): 18 µM | TGI (KM20L2 colon): 31.9 µM | GI50 (MDA-N): 2.95 µM | TGI (MDA-N): 9.26 µM | GI50 (HS 578T breast): 4.06 µM | TGI (HS 578T breast): 22.2 µM | GI50 (M19-MEL melanoma): 11 µM | TGI (M19-MEL melanoma): 23.9 µM

COc1ccc(/C=[N+](\[O-])[C@H](COCc2ccccc2)c2ccccc2)cc1
TGI (DLD-1 colon): > 100 µM | TGI (DMS 114 small cell lung): > 100 µM | TGI (RXF-631 renal): > 100 µM | TGI (KM20L2 colon): > 100 µM | TGI (XF 498 CNS): > 100 µM

Cc1ccc(S(=O)(=O)NCCN2c3nc4ccccc4cc3Sc3cc4ccccc4nc32)cc1
GI50 (MCF7 breast): > 100 µM | TGI (MCF7 breast): > 100 µM | GI50 (HS 578T breast): 2.43 µM | TGI (HS 578T breast): 23.2 µM

CC1=C2N3C[C@@H](n4c(=O)n(C)c(=O)n43)C23CCC1n1c(=O)n(C)c(=O)n13
TGI (DLD-1 colon): > 100 µM | TGI (DMS 114 small cell lung): 76.3 µM | TGI (KM20L2 colon): > 100 µM | TGI (XF 498 CNS): > 100 µM | TGI (M19-MEL melanoma): > 100 µM

c1cc(-c2sc(-c3ccncc3)c(-c3ccncc3)c2-c2ccncc2)ccn1
TGI (MCF7 breast): 52 µM | TGI (MDA-N): 29 µM | TGI (HS 578T breast): 73.5 µM

COC(=O)/C(=N/NC(C)(C)C)C(C(=O)C=C(C)C)C(=O)C(=O)Nc1ccc(Cl)cc1C (stereo not given)
TGI (DMS 114 small cell lung): > 100 µM | TGI (KM20L2 colon): > 100 µM | TGI (XF 498 CNS): > 100 µM | TGI (M19-MEL melanoma): > 100 µM

OC1CCC(Oc2cccc3cnc(Nc4ccc5nc[nH]c5c4)nc23)CC1 (stereo not given)
GI50 (MCF7 breast): 0.217 µM | TGI (MCF7 breast): 3.1 µM | GI50 (HS 578T breast): 0.728 µM | TGI (HS 578T breast): 8.32 µM

CCCCCCCCCCCC(=O)C1=C(O)C(O)CCC1=O (stereo not given)
TGI (DLD-1 colon): > 100 µM | TGI (DMS 114 small cell lung): 50.5 µM | TGI (KM20L2 colon): 24.9 µM | TGI (XF 498 CNS): 26.4 µM | TGI (M19-MEL melanoma): 44.6 µM

O=C(Nc1ccc(Br)cc1)c1cc(Br)cc(Br)c1O
GI50 (MCF7 breast): 2.46 µM | TGI (MCF7 breast): > 100 µM | GI50 (HS 578T breast): 2.71 µM | TGI (HS 578T breast): 7.74 µM

COc1ccc([N+](=O)[O-])c2c(NCC(O)CO)ccnc12 (stereo not given)
TGI (MCF7 breast): > 100 µM | TGI (MDA-N): > 100 µM | TGI (HS 578T breast): > 100 µM

O=C(N=Nc1c(O)[nH]c2ccccc12)c1ccccc1O
TGI (DLD-1 colon): > 100 µM | TGI (DMS 114 small cell lung): > 100 µM | TGI (KM20L2 colon): > 100 µM | TGI (M19-MEL melanoma): > 100 µM

NC(N)=N/N=C/c1c(-c2cc(Cl)sc2Cl)nc2n1CCS2
GI50 (MCF7 breast): 10.6 µM | TGI (MCF7 breast): 25.3 µM | GI50 (HS 578T breast): 9.23 µM | TGI (HS 578T breast): 21.8 µM

CC/C=C\C[C@H](O)C/C=C1/C(=O)C=C[C@@H]1C/C=C\CCCC(N)=O
GI50 (MCF7 breast): 0.626 µM | TGI (MCF7 breast): 11.7 µM | GI50 (HS 578T breast): 5.29 µM | TGI (HS 578T breast): 32.4 µM

CC(SC1=CC(=O)c2c(O)ccc(O)c2C1=O)C(=O)O (stereo not given)
TGI (DLD-1 colon): > 57.1 µM | TGI (DMS 114 small cell lung): 44 µM | TGI (RXF-631 renal): > 100 µM | TGI (KM20L2 colon): > 100 µM | TGI (XF 498 CNS): > 82.2 µM

Nc1ncnc2c1ncn2C1OC(C(=O)O)C(O)C1O (stereo not given)
TGI (MCF7 breast): > 100 µM | TGI (MDA-N): > 100 µM | TGI (HS 578T breast): > 100 µM

CC1=CC[C@@H]2C(C)(C)[C@@H](O)CC[C@@]2(C)[C@@H]1COc1ccc2ccc(=O)oc2c1
GI50 (MCF7 breast): 7.3 µM | TGI (MCF7 breast): 27 µM | GI50 (HS 578T breast): 3.29 µM | TGI (HS 578T breast): 23.4 µM

[Cl][Sn]([c]1ccccc1)[c]1ccccc1
GI50 (DLD-1 colon): 3.65 µM | TGI (DLD-1 colon): 13.7 µM | GI50 (DMS 114 small cell lung): 3.47 µM | TGI (DMS 114 small cell lung): 19.4 µM | GI50 (RXF-631 renal): 3.86 µM | TGI (RXF-631 renal): 27 µM | GI50 (KM20L2 colon): 14.9 µM | TGI (KM20L2 colon): 30.4 µM | GI50 (XF 498 CNS): 2.68 µM | TGI (XF 498 CNS): 5.22 µM
